Assay: Metabolite radio-profiling (LC-RAM, LC-MS/MS) of plasma, urine and feces
Format: in vivo, human
Settings: pooled plasma 2–96 h, subjects 03–06
Description: An equal volume of 2, 4, 8, 12, 24, and 96 h plasma sample was pooled by time-point across subject 03 ~ 06, to give six pooled plasma samples for metabolite profiling. An appropriate volume (3x, v/v) of acetonitrile was added to a portion of the pooled plasma sample, followed by vortexing ca. 2 min. After storage in a refrigerator for ca. 30 min, the mixture was centrifuged at ca. 10000 g at 4 °C for 10 min. The supernatant was then separated from the PES, which was suspended with water, followed by addition of methanol (2x, v/v) twice. The three extracts were combined and evaporated to dryness under a nitrogen stream by an N-Evap evaporator at room temperature. The residues were reconstituted with an appropriate volume of methanol:water (1:1, v/v) and centrifuged at ca. 10000 g at 4 ℃ for 10 min. The supernatant was subjected to HPLC radio-profiling.
Four pooled human urine samples (subject 03 ~ 06) were pooled from 0 to 432 h based on equal volume ratios from the individual patients across time intervals. In addition, three pooled urine samples (0–48, 48–120 and 360–432 h) (subjects 03–06) were prepared by pooling human urine samples across subjects and time points. Portion of the pooled urine sample was evaporated to a small volume under a nitrogen stream and extracted with methanol (3x, v/v) followed by centrifuged at ca. 10000 g at 4 ℃ for 10 min. The supernatant was reconstituted with an appropriate volume of methanol:water (1:1, v/v) and centrifuged at ca. 10000 g at 4 ℃ for 10 min. The supernatant was subjected to HPLC radio-profiling.
Four human fecal samples (0–432 h) were prepared by pooling feces from individual subjects (Subjects 03–06). In addition, three pooled human fecal samples (0–48, 48–120 and 360–432 h) were prepared by pooling feces samples across subjects and time points. The pooled fecal homogenate was extracted with methanol (3x, v/v) and the mixture was vortexed, and centrifuged at ca. 10000 g at 4 ℃ for 10 min. The supernatant was then separated from the PES, which was suspended with water, followed by addition of methanol twice. The three extracts were combined and evaporated to dryness under a nitrogen stream by an N-Evap evaporator at room temperature. The residues were reconstituted with an appropriate volume of methanol:water (1:1, v/v) and centrifuged at ca. 10000 g at 4 ℃ for 10 min prior to analysis.
HPLC coupled with radioactivity monitor (LC-RAM) was used to isolate and quantitate [^14C] anlotinib and its metabolites. The plasma and fecal extracts as well as urine supernatants were subjected to HPLC separation, fractionation, and eluent collection. The radioactivity in each fraction was monitored by solid scintillation counting using a Packard TopCount® NXT™ Microplate Counter. The radio-profiles were then reconstructed using ARC® Convert software. The peak area of each radioactivity peak/region was integrated using ARC® Evaluation software, and the percent distribution of each peak/region was calculated (%TRA for plasma or %Dose for urine and feces).
Metabolites were characterized and/or identified by LC–MS/MS in conjunction with on-line radioactivity detection. Structures of metabolites were proposed by interpretation of the mass spectral fragmentation pattern, as well as chromatographic behaviors and metabolic pathways.

Row | Structure (SMILES) | Drug-related component in human plasma (radio-profile)
1 | COc1cc2c(Oc3ccc4[nH]c(C)cc4c3F)ccnc2cc1O [M18] | detected
2 | COc1cc2c(Oc3ccc4[nH]c(C)cc4c3F)ccnc2cc1OCC1(O)CC1 [M28] | detected
3 | COc1cc2c(Oc3ccc4[nH]c(C(=O)O)cc4c3F)ccnc2cc1OCC1(N)CC1 [M30] | major drug-related component

— article PMC7188728, “A phase I study investigation of metabolism, and disposition of [^14C]-anlotinib after an oral administration in patients with advanced refractory solid tumors” (Cancer Chemotherapy and Pharmacology, 2020)
